# From patent US8404839B2, “Crystalline 4-(3-chloro-2-fluoroanilino)-7 methoxy-6-{[1-(N-methylcarbamoylmethyl)piperidin-4-yl]oxy} quinazoline difumarate Form A” (Astrazeneca AB, priority 2008, dated 2013)
# Read-outs that look alike come from different tables or passages of the source.
# What was measured:
# [1] = Pharmacokinetic study in dogs; format: in vivo, Male Beagle Dogs; settings: dog, n = 4, mean ± SE; for AUC(0-t): read-out: AUC(0-48)
# Dynamic vapour sorption = format: physicochemical; settings: for hygroscopicity (in words): Dynamic Vapour Sorption
# Experimental: (ix) dynamic vapour sorption was measured using a SMS DVS (Surface Measurement Systems Limited, UK). Samples were analysed at 25° C. using a gas flow of 200 cubic centimeters per minute. The relative humidity (RH) was increased from 0% RH in steps of 10% RH to 80% RH with the final step of 95% RH. The sample was then desorbed using the same RH step pattern as the sorption; this procedure was then repeated in a second sorption/desorption cycle. Equilibration at each humidity step is set such that the rate of change of weight with time (minute) was 0.002%.
# [2] = Intrinsic dissolution rate in aqueous buffers; format: physicochemical; settings: for Intrinsic Dissolution Rate: 37° C.
# Experimental: (x) intrinsic dissolution rate was measured in a dissolution bath coupled to a fibre optic uv detector.
# [3] = In vitro dissolution of direct compression tablets; format: physicochemical; settings: pH 4.5 citrate buffer, 100 mg free base equivalents
# Experimental: The performance of the solid dosage forms was evaluated in vitro prior to the in-vivo dog study commencing.
# [4] = Aqueous solubility (HPLC UV); format: physicochemical; settings: for solubility at 48 h: thermodynamic from solid, 25° C.
# Experimental: (xi) solubility in water was measured using HPLC UV.
# The intrinsic dissolution rates of Compound (I) difumarate Form A and Compound (I) was also been measured in a range of aqueous buffers.
# MCF-7 cells [5] = assay: HRG-stimulated MCF-7 cell proliferation assay (MTS); format: cell-based; settings: Homo sapiens, MCF7, 96 h, 10 ng/ml HRG, 4 days, basal growth subtracted, read-out: HRG-stimulated proliferation Geo Mean IC50
# ErbB3 = assay: p-ErbB3 ELISA in HRG-stimulated MCF-7 cells; format: cell-based, Human; settings: 90 minutes treatment, bracket = confidence interval ratio, read-out: p-ErbB3 Geo Mean IC50 (95% CIR)
# Experimental: KB cells and MCF-7 cells were obtained from the American Type Culture Collection (ATCC) and routinely cultured in RPMI 1640 (Phenol red free)+10% Foetal Bovine Serum+2 mM L-Glutamine. KB cells were seeded at 5000 cells/well and MCF-7 cells at 4000 cells/well in 96 well plates in RPMI 1640 media containing 10% FBS. Cells were incubated for 72 hours before replacing the media with serum-free RPMI 1640 media for 24 hours. […] Immediately before cell lysis, MCF-7 and KB cells were incubated for 5 minutes with ligand (heregulin (“HRG”) for the MCF-7 cells and epidermal growth factor (“EGF”) for the KB cells) at concentrations required to increase receptor phosphorylation to 90% of max (ED90) to allow inter-assay comparison. The p-EGFR status of KB cells was measured using the Human phospho-EGFR Duoset ELISA kit (R&D systems total EGFR #DYC1854, pEGFR #DYC1095). The p-ErbB2 and p-ErbB3 content of MCF-7 cells were measured using the Human phospho-ErbB2 Duoset ELISA kit (R&D systems, DYC1768) and Human phospho-ErbB3 Duoset ELISA kit (R&D systems, DYC1769) respectively. The kits measured whole cell tyrosine phosphorylation of EGFR, ErbB2 or ErbB3. Assays were performed according to the manufacturers instructions, with 50 μl lysate added per well.
# MCF-7 cells [6] = assay: Basal MCF-7 cell proliferation assay (MTS); format: cell-based; settings: Homo sapiens, MCF7, 96 h, unstimulated, 4 days, read-out: Basal proliferation Geo Mean GI50
# Experimental: MCF-7 cells were routinely cultured in DMEM (Phenol red free)+10% Foetal Bovine Serum+2 mM L-Glutamine. […] Basal wells were unstimulated with ligand. After incubation for 4 days, cell viability was assessed using a 3-(4,5-dimethylthiazol-2-yl)-5-(3-carboxymethoxyphenyl)-2-(4-sulfophenyl)-2H-tetrazolium (MTS) assay. Prior to IC50 determination of HRG-stimulated compound-treated cells, mean basal growth at 96 hours was subtracted from each of the readouts so that proliferation driven through HRG-signalling was assessed. Basal IC50 values are expressed as GI50 i.e. the day 0 plate cell number (baseline reading) was subtracted from the readout at 96 hours later.
# ErbB2 = ErbB2 (Homo sapiens, UniProt P04626); assay: p-ErbB2 ELISA in HRG-stimulated MCF-7 cells; format: cell-based; settings: 90 minutes treatment, bracket = confidence interval ratio, read-out: p-ErbB2 Geo Mean IC50 (95% CIR)
# Sequence of ErbB2 (P04626 23-1255): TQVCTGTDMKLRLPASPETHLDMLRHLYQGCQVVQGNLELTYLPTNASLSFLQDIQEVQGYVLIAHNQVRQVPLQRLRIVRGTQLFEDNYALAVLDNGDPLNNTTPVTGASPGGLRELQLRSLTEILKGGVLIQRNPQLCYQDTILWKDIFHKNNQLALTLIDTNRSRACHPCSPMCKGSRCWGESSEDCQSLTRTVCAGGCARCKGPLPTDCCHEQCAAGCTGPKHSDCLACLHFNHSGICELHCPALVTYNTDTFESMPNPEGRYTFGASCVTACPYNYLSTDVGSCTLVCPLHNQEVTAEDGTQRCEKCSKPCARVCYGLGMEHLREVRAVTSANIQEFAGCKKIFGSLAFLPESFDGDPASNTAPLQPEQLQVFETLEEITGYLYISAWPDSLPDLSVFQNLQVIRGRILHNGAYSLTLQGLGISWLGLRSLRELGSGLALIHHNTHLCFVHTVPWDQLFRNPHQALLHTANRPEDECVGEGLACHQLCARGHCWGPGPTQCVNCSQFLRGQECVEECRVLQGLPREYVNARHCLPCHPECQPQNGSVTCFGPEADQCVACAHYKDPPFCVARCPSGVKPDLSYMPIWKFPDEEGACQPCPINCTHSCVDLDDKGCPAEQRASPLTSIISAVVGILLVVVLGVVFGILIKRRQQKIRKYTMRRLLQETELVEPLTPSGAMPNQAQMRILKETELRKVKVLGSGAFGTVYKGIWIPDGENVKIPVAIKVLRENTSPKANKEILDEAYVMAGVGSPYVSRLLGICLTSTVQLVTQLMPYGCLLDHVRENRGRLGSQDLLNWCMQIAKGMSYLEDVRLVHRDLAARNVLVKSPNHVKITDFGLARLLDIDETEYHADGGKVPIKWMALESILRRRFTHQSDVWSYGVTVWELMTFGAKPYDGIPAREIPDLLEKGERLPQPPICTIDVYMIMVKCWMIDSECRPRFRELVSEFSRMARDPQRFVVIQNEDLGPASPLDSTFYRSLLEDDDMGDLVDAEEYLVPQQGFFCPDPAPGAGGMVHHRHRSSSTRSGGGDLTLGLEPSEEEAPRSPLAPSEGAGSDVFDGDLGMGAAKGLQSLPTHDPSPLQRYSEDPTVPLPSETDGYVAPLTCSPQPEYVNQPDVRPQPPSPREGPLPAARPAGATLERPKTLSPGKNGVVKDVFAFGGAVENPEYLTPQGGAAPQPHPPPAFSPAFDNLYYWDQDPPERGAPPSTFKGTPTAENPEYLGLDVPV
# [7] = Cellular permeability / BCS classification; format: in vitro ADME
# [8] = oral direct compressed tablet, 100 mg free form equivalent
# [9] = oral direct compressed tablet, 100 mg free form equivalent, versus IV 20 mg
# [10] = male, beagle, plasma, oral direct compressed tablet, 100 mg free form equivalent
smiles,measurement,setting,value
"CNC(=O)CN1CCC(Oc2cc3c(Nc4cccc(Cl)c4F)ncnc3cc2OC)CC1.O=C(O)/C=C/C(=O)O.O=C(O)/C=C/C(=O)O [Compound (I) difumarate Form A, 2-[4-({4-[(3-Chloro-2-fluorophenyl)amino]-7-methoxyquinazolin-6-yl}oxy)piperidin-1-yl]-N-methylacetamide di-[(2E)-but-2-enedioate] Form A]",AUC(0-48),[1]; [8],190.3 ± 46.9 µM·h
same,Cmax,[1]; [8],32.6 ± 3.6 µM
same,Tmax,[1]; [8],1.1 ± 0.3 h
same,half-life,[1]; [8],16.9 ± 4.0 h
same,Bioavailability(0-48 h),[1]; [9],113%
same,Bioavailability(0-48 h),"[1]; oral direct compressed tablet, 100 mg free form equivalent, versus IV 20 mg, listed as Difumarate Form A",112.5 ± 8.1%
same,hygroscopicity (in words),Dynamic vapour sorption,non-hygroscopic
same,moisture absorbed (Dynamic Vapour Sorption),"Dynamic vapour sorption; up to 95% relative humidity, 25° C.",< 0.5%
same,Intrinsic Dissolution Rate,[2]; SGF (Simulated Gastric Fluid),15.9 mgmin^−1cm^−2
same,Intrinsic Dissolution Rate,[2]; pH 6.5 phosphate buffer,2.51 mgmin^−1cm^−2
same,% Dissolution at 45 minutes,[3],100.3%
same,solubility in water,[4]; pH 3.5,22500 µg/mL
"CNC(=O)CN1CCC(Oc2cc3c(Nc4cccc(Cl)c4F)ncnc3cc2OC)CC1 [Compound (I), 4-(3-chloro-2-fluoroanilino)-7-methoxy-6-{[1-(N-methylcarbamoylmethyl)piperidin-4-yl]oxy}quinazoline]",Bioavailability(0-48 h),[1]; [9],63.5 ± 7.0%
same,bioavailability,"[1]; male, beagle, plasma, oral, 100 mg, oral direct compressed tablet, 100 mg free form equivalent, versus IV 20 mg, read-out: Bioavailability(0-48 h)",64%
same,Cmax,"[1]; male, beagle, plasma, IV 20 mg",9 ± 1.1 µM
same,AUC(0-t),"[1]; male, beagle, plasma, IV 20 mg",33.4 ± 7.7 µM·h
same,clearance,"[1]; male, beagle, plasma, IV 20 mg, read-out: Cl (Clearance)",1.9 ± 0.5 mL/min/kg
same,half-life,"[1]; male, beagle, plasma, IV 20 mg, read-out: Half-life (converted)",5.3 ± 0.2 h
same,Tmax,"[1]; male, beagle, plasma, IV 20 mg, read-out: Tmax",0.2 h
same,Vd,"[1]; male, beagle, plasma, IV 20 mg, read-out: Vss (Volume of distribution at steady state)",0.6 ± 0.1 L/kg
same,Cmax,[1]; [10],14 ± 1.7 µM
same,AUC(0-t),[1]; [10],104 ± 25.3 µM·h
same,half-life,"[1]; male, beagle, plasma, oral direct compressed tablet, 100 mg free form equivalent, read-out: Half-life (converted)",8.2 ± 0.6 h
same,Tmax,"[1]; male, beagle, plasma, oral direct compressed tablet, 100 mg free form equivalent, read-out: Tmax",1.6 ± 0.8 h
same,hygroscopicity (in words),Dynamic vapour sorption,moderately hygroscopic
same,moisture uptake (Dynamic Vapour Sorption),"Dynamic vapour sorption; at 80% relative humidity, 25° C.",approximately 1.9 % w/w
same,IC50,MCF-7 cells [5],0.061 µM
same,IC50,ErbB3,0.004 µM
same,Intrinsic Dissolution Rate,[2]; SGF (Simulated Gastric Fluid),19.2 mgmin^−1cm^−2
same,Intrinsic Dissolution Rate,[2]; pH 6.5 phosphate buffer,0.01 mgmin^−1cm^−2
same,intrinsic dissolution rate (in words),[2]; particularly at pH below 6.0,relatively low
same,% Dissolution at 45 minutes,[3],93.6%
same,GI50,MCF-7 cells [6],1.09 µM
same,solubility at 48 h,"[4]; aqueous buffer, pH 2.7, 48 hours, read-out: solubility in aqueous buffer",27200 µg/mL
same,solubility at 48 h,"[4]; aqueous buffer, pH 7.9, 48 hours, read-out: solubility in aqueous buffer",1 µg/mL
same,solubility at 48 h,"[4]; water, 48 hours, pH 7.0, read-out: solubility in water",1 µg/mL
same,IC50,ErbB2,0.003 µM
same,cellular permeability (in words),[7],high
same,BCS classification,[7]; suggested by low solubility and high permeability,Class II
